{
  "source": "patent US20020032193A1",
  "about": "“Use of potassium channel openers for the treatment of insulitis” (priority 2000, published 2002)",
  "key": {"ischemic heart": {"test_system": "ischemic heart", "details": "Garlid KD et al., Circulation Res 1997; cited from earlier work"}, "Rat islets [1]": {"test_system": "Rat islets", "test": "Insulin secretion and islet insulin content after streptozotocin exposure", "type": "cell-based, Sprague-Dawley rats", "details": "24 hours; for insulin content compared to islets incubated with STZ alone / insulin secretion compared to islets incubated with STZ alone: pre-incubated with KATP channel opener, then 0.5 mM STZ", "description": "(§1) Pancreata from Sprague-Dawley rats were collagenase digested and islets collected with a braking pipette as previously described (Sandler S et al., Endocrinology, 1987;121:1424-31). Islets were precultured free floating in RPMI 1640 medium with 10% (v/v) fetal calf serum (FCS) and 11 mM glucose for 3 days in 5% CO2 at 37° C. before experiments. Medium was changed two times during preculture. Islets were then transferred to sterile Petri dishes in KRBH (Krebs-Ringer bicarbonate with HEPES) medium with 2 mg/mL bovine serum albumin (BSA) and 5.6 mM glucose.\n(§2) Stock solutions of test compounds dissolved in dimethyl sulphoxide were prepared and added to the Petri dishes. Islets were incubated in 5% CO2 at 37° C. for 30 minutes with or without test compounds and STZ in 0.9% NaCl was then added to a final concentration of 0.5 mM. Dry powder of alloxan was diluted to a stock of 50 mM just before the addition to the Petri dishes to a final concentration of 0.5 mM. The incubation continued for another 30 minutes and was terminated by the addition of 1 mL of cold KRBH. The islets were then washed twice in KRBH and studied for morphology and insulin secretion, or cultured for 2 or 24 hours in RPMI with 10% FCS and 11 mM glucose prior to morphological and biochemical examinations.\n(§3) Triplicates of five islets were transferred to 200 μl of KRBH with 2 mg/mL BSA and 16.7 mM glucose and incubated for 60 minutes in 5% CO2 at 37° C. Islets from each condition were then pooled and sonicated in 200 μl of redestilled water. A 50 μl aliquot of the homogenate was mixed with 125 μl acid ethanol (0.18 M HCl in 95% ethanol) and insulin extracted overnight. Insulin concentration in the sonicate and the culture medium was determined with radioimmunoassay."}, "Rat islets [2]": {"test_system": "Rat islets", "test": "Glucose oxidation after alloxan exposure", "type": "cell-based, Sprague-Dawley rats", "details": "for glucose oxidation rate, of control: islets treated with 0.5 mM alloxan in the presence of opener, 24 hours", "description": "as §1, §2\nGroups of 10 islets were transferred to glass vials with 100 μl KRBH supplemented with D-[U^14C]glucose and nonradioactive glucose to a final concentration of 16.7 mM glucose. Triplicate samples were used. The vials were suspended in scintillation flasks, gassed with 5% CO2 and sealed airtight. The flasks were then shaken for 90 minutes at 37° C. Metabolism was stopped by injection of 100 μl of 0.05 mM antimycin A into the center vial. Immediately thereafter 250 μl hyamine hydroxide was injected into the outer flask. CO2 was released from the incubation medium by injecting 100 μl of 0.4 M Na2HPO4 solution (pH 6.0) into the center vial. […] Scintillation fluid was then added to each flask and the radioactivity counted in a liquid scintillation counter."}, "Rat islets [3]": {"test_system": "Rat islets", "test": "Insulin release after alloxan exposure", "type": "cell-based, Sprague-Dawley rats", "details": "for counteraction of alloxan-induced reduction of insulin release: 0.3 mM opener, simultaneous incubation with 0.5 mM alloxan", "description": "as §1, §2, §3"}, "Rat islets [4]": {"test_system": "Rat islets", "test": "Islet recovery after streptozotocin exposure", "type": "cell-based, Sprague-Dawley rats", "description": "as §1\n(§4) Stock solutions of test compounds dissolved in dimethyl sulphoxide were prepared and added to the Petri dishes. Islets were incubated in 5% CO2 at 37° C. for 30 minutes with or without test compounds and STZ in 0.9% NaCl was then added to a final concentration of 0.5 mM. Dry powder of alloxan was diluted to a stock of 50 mM just before the addition to the Petri dishes to a final concentration of 0.5 mM. The incubation continued for another 30 minutes and was terminated by the addition of 1 mL of cold KRBH. […]\nAbout 100 islets per condition were carefully transferred to a glass tube and spun down at 800 rpm for 1 minute. […] For estimation of islet recovery, 30 islets from each condition were transferred to Petri dishes as described above and the remaining islets counted after 24 hours."}, "Rat islets [5]": {"test_system": "Rat islets", "test": "Glucose oxidation after streptozotocin exposure", "type": "cell-based, Sprague-Dawley rats", "description": "as §1, §4\nGroups of 10 islets were transferred to glass vials with 100 μl KRBH supplemented with D-[U^14C]glucose and nonradioactive glucose to a final concentration of 16.7 mM glucose. […] Scintillation fluid was then added to each flask and the radioactivity counted in a liquid scintillation counter."}, "Rat islets [6]": {"test_system": "Rat islets", "test": "Proinsulin and total protein biosynthesis after streptozotocin exposure", "type": "cell-based, Sprague-Dawley rats", "description": "as §1, §2\nFor each condition duplicate samples of 20 islets were transferred to multiwell plates containing 100 μl KRBH with L-[4.5-^3H]leucine (50 μCi/ml), 2 mg/mL BSA and 16.7 mM glucose and incubated for 120 minutes in 5% C02 at 37° C. Islets were then washed in Hanks' solution supplemented with 10 mM nonradioactive leucine and subsequently sonicated in 200 μl of redestilled water. A 50 μl fraction of the aqueous homogenate was incubated for 90 minutes with insulin antibodies coupled to Sepharose beads to separate proinsulin from other labelled proteins (15). Total protein biosynthesis was obtained by precipitating the labelled proteins with trichloroacetic acid (TCA). The antibody bound and TCA precipitable radioactivity were determined in a liquid scintillation counter."}, "[7]": {"details": "0.3 mM test compound + 0.5 mM STZ"}, "[8]": {"details": "remaining islets after STZ 0.5 mM"}, "[9]": {"details": "recovered STZ islets at 24 hours"}},
  "data": [
    {"smiles": "CC1=NS(=O)(=O)c2cc(Cl)ccc2N1", "note": "[diazoxide]", "values": [
      {"measurement": "effect in ischemic heart", "setting": "ischemic heart", "value": "beneficial, cardioprotective effect"},
      {"measurement": "insulin content compared to islets incubated with STZ alone", "setting": "Rat islets [1]", "value": "higher"},
      {"measurement": "insulin secretion compared to islets incubated with STZ alone", "setting": "Rat islets [1]", "value": "higher"},
      {"measurement": "glucose oxidation rate, of control", "setting": "Rat islets [2]", "value": 73, "unit": "%"},
      {"measurement": "counteraction of alloxan-induced reduction of insulin release", "setting": "Rat islets [3]", "value": "fully counteracted"}
    ]},
    {"smiles": "CC1(C)Oc2ccc(C#N)cc2C(N2CCCC2=O)C1O", "note": "(stereo not drawn) [cromakalim]", "values": [
      {"measurement": "effect in ischemic heart", "setting": "ischemic heart", "value": "beneficial, cardioprotective effect"}
    ]},
    {"smiles": "CC(C)NC1=NS(=O)(=O)c2sc(Cl)cc2N1", "note": "[6-Chloro-3-isopropylamino-4H-thieno[3,2-e]-1,2,4-thiadiazine 1,1-dioxide]", "values": [
      {"measurement": "insulin content compared to islets incubated with STZ alone", "setting": "Rat islets [1]", "value": "higher"},
      {"measurement": "insulin secretion compared to islets incubated with STZ alone", "setting": "Rat islets [1]", "value": "higher"},
      {"measurement": "glucose oxidation rate, of control", "setting": "Rat islets [2]", "value": "did not differ from control"},
      {"measurement": "counteraction of alloxan-induced reduction of insulin release", "setting": "Rat islets [3]", "value": "fully counteracted"},
      {"measurement": "islet loss", "setting": "Rat islets [4]; 0.3 mM test compound preincubated 30 minutes + 0.5 mM STZ, 24 hours culture", "value": "no islet loss"},
      {"measurement": "glucose oxidation rate compared to islets incubated with STZ alone", "setting": "Rat islets [5]; [7]", "value": "higher"},
      {"measurement": "insulin biosynthesis compared to islets incubated with STZ alone", "setting": "Rat islets [6]; [7]", "value": "higher"}
    ]},
    {"smiles": "CC(N/C(=N\\C#N)Nc1ccncc1)C(C)(C)C", "note": "(stereo not drawn) [pinacidil]", "values": [
      {"measurement": "effect in ischemic heart", "setting": "ischemic heart", "value": "beneficial, cardioprotective effect"}
    ]},
    {"smiles": "O=C1NC(=O)C(=O)C(=O)N1", "note": "[alloxan]", "values": [
      {"measurement": "decrease of glucose oxidation rate", "setting": "Rat islets [2]; 0.5 mM alloxan, after 24 hours", "value": 51, "unit": "%"},
      {"measurement": "reduction of insulin release", "setting": "Rat islets [3]; 0.5 mM alloxan", "value": 31, "unit": "%"}
    ]},
    {"smiles": "CN(N=O)C(=O)N[C@H]1C(O)O[C@H](CO)[C@@H](O)[C@@H]1O", "note": "(mixture of isomers) [STZ, streptozotocin]", "values": [
      {"measurement": "insulin content, of control", "setting": "Rat islets [1]; [8]", "value": 50, "unit": "%"},
      {"measurement": "insulin secretion, of control", "setting": "Rat islets [1]; [8]", "value": 60, "unit": "%"},
      {"measurement": "islet loss", "setting": "Rat islets [4]; STZ 0.5 mM for 30 minutes, then 24 hours culture", "value": 40, "unit": "%"},
      {"measurement": "rate of glucose oxidation, of control", "setting": "Rat islets [5]; islets after STZ 0.5 mM, 24 hours", "value": 16, "unit": "%"},
      {"measurement": "proinsulin biosynthesis, of control", "setting": "Rat islets [6]; [9]", "value": 35, "unit": "%"},
      {"measurement": "total protein biosynthesis, of control", "setting": "Rat islets [6]; [9]", "value": 51, "unit": "%"},
      {"measurement": "proinsulin/total protein biosynthesis ratio", "setting": "Rat islets [6]; recovered STZ islets at 24 hours, 23% in control islets", "value": 15, "unit": "%"},
      {"measurement": "insulin biosynthesis, of control", "setting": "Rat islets [6]; remaining islets after STZ 0.5 mM, 24 hours", "value": 35, "unit": "%"}
    ]}
  ]
}
